Consider 1 substance from paper PMC4063695, “Design of Embedded-Hybrid Antimicrobial Peptides with Enhanced Cell Selectivity and Anti-Biofilm Activity” (PLoS ONE, 2014).

The subject of series [1] is E. coli ATCC25922. As to conditions: E. coli ATCC25922; MHB, 37°C, 18-24 h; at least three times in duplicate. From the text: (§1) E. coli ATCC25922, P. aeruginosa ATCC27853, S. aureus ATCC29213, S. epidermidis ATCC12228, S. faecalis ATCC29212 and B. subtilis CMCC63501 were obtained from the College of Veterinary Medicine, Northeast Agricultural University (Harbin, China), E. coli K88, E. coli CVCC1515 and P. aeruginosa ATCC15442 were bestowed by Prof. J.H. Wang (Gene Engineering Laboratory, Feed Research Institute, Chinese Academy of Agricultural Sciences Beijing, China) and E. coli UB1005 was kindly provided by Prof. Q.S. Qi (State Key Laboratory of Microbial Technology, Shandong University, China). […] Briefly, 50 µl of approximate 0.5–1 × 10^6 colony forming units (CFU)/ml of cells were diluted in Mueller-Hinton broth and distributed to 96-well plate, 50 µl of twofold peptides were added and the plates was incubated at 37°C for 18–24 h. The MIC values were calculated as the lowest peptide concentration that prevented visible turbidity and negative control of the pure broth without microbes. The tests were performed at least three times in duplicate.

For series [2], the system named is S. pullorum C79-13. Particulars: S. pullorum C79-13; MHB, 37°C, 18-24 h; at least three times in duplicate.
Description: as §1

The subject of series [3] is S.aureus ATCC29213. As to conditions: S.aureus ATCC29213; MHB, 37°C, 18-24 h; at least three times in duplicate.
Description: as §1

Series [4] has as its system P. aeruginosa ATCC27853. As to conditions: P. aeruginosa ATCC27853; MHB, 37°C, 18-24 h; at least three times in duplicate.
Description: as §1

Series [5] concerns S. typhimurium ATCC14028. As to conditions: S. typhimurium ATCC14028; MHB, 37°C, 18-24 h; at least three times in duplicate.
Description: as §1

For series [6], the system named is E. coli K88. Particulars: MHB, 37°C, 18-24 h, at least three times in duplicate.
Description: as §1

Series [7] deals with P. aeruginosa ATCC15442. As to conditions: P. aeruginosa ATCC15442; MHB, 37°C, 18-24 h; at least three times in duplicate.
Description: as §1

In series [8] the test system is B. subtilis CMCC63501. Particulars: B. subtilis CMCC63501; MHB, 37°C, 18-24 h; at least three times in duplicate.
Description: as §1

The test system of series [9] is S.faecalis ATCC29212. Particulars: S.faecalis ATCC29212; MHB, 37°C, 18-24 h; at least three times in duplicate.
Description: as §1

For series [10], the system named is S.epidermidis ATCC12228. Particulars: S.epidermidis ATCC12228; MHB, 37°C, 18-24 h; at least three times in duplicate.
Description: as §1

Series [11] deals with P. aeruginosa variant 2. Particulars: P. aeruginosa variant 2, obtained by step-wise culture with gentamicin; MHB, 37°C, 18-24 h.
Description: as §1

For series [12], the system named is P. aeruginosa variant 1. As to conditions: P. aeruginosa variant 1, obtained by step-wise culture with ciprofloxacin hydrochloride; MHB, 37°C, 18-24 h.
Description: as §1

Series [13] deals with E. coli CVCC1515. As to conditions: E. coli CVCC1515; MHB, 37°C, 18-24 h; at least three times in duplicate.
Description: as §1

For series [14], the system named is human red blood cells (hRBC). Kind of series: Hemolytic activity. The class given is cell-based. As to conditions: minimum concentration that caused 5% hemolysis of hRBC (footnote); 1% hRBC in PBS pH 7.4, 1 h, 37°C, OD 492 nm. The protocol:
The amount of released hemoglobin by the lysis of erythrocytes was measured for hemolytic activity of peptides. Human erythrocytes were obtained from a healthy donor with written informed consent. The experimental protocol was reviewed and approved by the ethics committee of the Northeast Agricultural University Hospital. The measurement was based on a previously described method. The fresh hRBCs were washed three times by centrifugation (1000 g, 5 min, 4°C) in PBS (pH 7.4), and then resuspended in PBS to obtain the erythrocyte with a dilution of approximately 1% (v/v). Then, 50 µL of hRBCs solution was incubated with 50 µL of different concentrations of the peptides dissolved in PBS for 1 h at 37°C, before centrifugation (1000 g, 5 min, 4°C) again. The absorbance of the supernatants was measured at optical density (OD) 492 nm. […] The control samples for 0% and 100% hemolysis consisted of hRBCs in PBS (Ablank) only and in 0.1% Triton X-100 (Atriton), respectively. The percentage of hemolysis was calculated according to the following equation: [drawing 3]

No end group written: not given here.

In general, MIC refers to the lowest concentration found to suppress growth. High values mean weaker potency, low ones greater potency. For RFRRLFRIRVRVLKKI-NH2 [R-FV-I16], the MIC in series [1] was 1 µM; in series [2] it was 1 µM; in series [3], 2 µM; in series [4], 4 µM; in series [5], 2 µM; in [6], 2 µM. Further, the MIC amounted to 2 µM in series [7]; 1 µM in series [8]; 1 µM in series [9]; 4 µM in series [10]; 4 µM in series [11]; 2 µM in [12]. Also, the minimal inhibitory concentration (MIC) in [13] is listed as 2 µM. In [14], this substance had an MHC of 128 µM.
